Test results: patent US7230131B2, “Carnitine-magnesium hydroxycitrate” (Lonza AG, priority 2000, dated 2007)
Like-named read-outs stand apart in the source and are kept apart here.

Legend:
[1] = molecular target: T1, citrate lyase (Homo sapiens, UniProt P53396); details: cited from earlier work
T1 sequence (P53396 1-1101): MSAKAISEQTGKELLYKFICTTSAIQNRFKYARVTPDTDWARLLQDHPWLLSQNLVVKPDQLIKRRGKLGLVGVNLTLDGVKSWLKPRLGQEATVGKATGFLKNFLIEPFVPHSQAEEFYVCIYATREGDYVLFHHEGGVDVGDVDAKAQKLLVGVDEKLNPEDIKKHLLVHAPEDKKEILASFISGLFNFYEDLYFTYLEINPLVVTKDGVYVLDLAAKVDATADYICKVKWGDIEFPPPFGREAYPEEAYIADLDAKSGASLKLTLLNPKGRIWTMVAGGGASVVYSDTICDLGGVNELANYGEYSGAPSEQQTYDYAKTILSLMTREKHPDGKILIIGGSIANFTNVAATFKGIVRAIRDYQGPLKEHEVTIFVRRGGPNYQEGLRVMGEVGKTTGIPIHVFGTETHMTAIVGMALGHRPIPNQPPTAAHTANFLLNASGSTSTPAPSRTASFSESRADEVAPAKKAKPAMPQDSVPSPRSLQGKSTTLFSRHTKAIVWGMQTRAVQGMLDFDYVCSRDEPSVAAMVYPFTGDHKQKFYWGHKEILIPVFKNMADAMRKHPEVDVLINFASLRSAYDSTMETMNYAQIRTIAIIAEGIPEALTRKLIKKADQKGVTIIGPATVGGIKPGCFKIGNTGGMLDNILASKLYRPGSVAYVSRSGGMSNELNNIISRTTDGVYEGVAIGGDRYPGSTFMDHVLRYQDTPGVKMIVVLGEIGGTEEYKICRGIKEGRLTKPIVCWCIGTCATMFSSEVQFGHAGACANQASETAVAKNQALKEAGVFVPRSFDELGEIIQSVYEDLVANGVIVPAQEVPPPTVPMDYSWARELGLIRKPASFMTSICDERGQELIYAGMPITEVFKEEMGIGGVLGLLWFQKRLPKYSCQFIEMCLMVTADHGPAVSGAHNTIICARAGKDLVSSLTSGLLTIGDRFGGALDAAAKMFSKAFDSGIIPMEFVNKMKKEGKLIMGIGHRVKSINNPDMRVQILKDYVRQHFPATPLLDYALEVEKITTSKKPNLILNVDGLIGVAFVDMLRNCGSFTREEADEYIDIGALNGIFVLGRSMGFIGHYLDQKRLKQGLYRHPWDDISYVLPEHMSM

[2] = Hygroscopicity test: gravimetric moisture uptake on storage at 56% relative humidity, 25° C.; format: physicochemical; details: for moisture uptake: previously dried to constant weight; for weight gain (moisture uptake from the air): 25° C., granulated <0.8 mm, previously dried over phosphorus pentoxide, based on total sample weight, Citrate
From the text: In a preferred embodiment, L-carnitine, magnesium hydroxide and citric acid are mixed in stoichiometric amounts, i.e. in a molar ratio of approximately 1:1:1. The types of these substances are preferably sufficiently pure, i.e. approved for the manufacture of food products or the preparation of pharmaceuticals, as are described, for example, in the European Pharmacopoeia. Anhydrous types are expediently used. To avoid an unwanted salt loading, the pure L-carnitine is preferably added to the mixture as neutral […] salt. Compared with previous methods of preparation, the hygroscopicity of the complex salt L-carnitine-magnesium citrate prepared in this way is reduced further. For example, the moisture uptake, determined by gravimetry in the way familiar to the skilled worker, of solid carnitine-Mg citrate prepared by the method of the invention and previously dried to constant weight under oil-pump vacuum or over phosphorus pentoxide is not more than 7% by weight after 48 h at 56% relative humidity (rH). This figure is not exceeded even after storage for 330 h. Based on the amount of carnitine or carnitine derivative present in the mixture, referred to within the scope of the invention as carnitine content based on free base, this corresponds to a moisture uptake of not more than 40% by weight. It is preferred for at least 80% of the carnitine-Mg citrate, based on the carnitine content in the mixture, to be in the form of complex salt in the mixture of the invention.
The product mixtures from example 1 and 2 granulated to a particle size of <0.8 mm using a FREEWIT screening granulator are stored at a relative humidity of 56% at 25° C. under constant test conditions for the stated times. The sample was previously dried to constant weight over phosphorus pentoxide. The moisture uptake from the air is determined by gravimetry. The weight gain is stated in percent based on the total weight of the sample.

[3] = relative humidity 56%, storage for 1 week; cited from earlier work
[4] = Storage stability in relation to rearrangement of HCA to the lactone, standard test conditions; format: physicochemical; details: compared with known HCA salts; standard test conditions customary in the pharmaceutical sector
From the text: The present invention further relates to carnitine-magnesium hydroxycitrate. This is a salt of low hygroscopicity and can be prepared by the present method through mixing magnesium hydroxide, hydroxycitric acid and carnitine or alkanoyl carnitine in the molar ratio 1:1:1. It is a neutral salt in the stoichiometric composition, in relation to the charge distribution and the ionizable functional groups. […] This involves a synergistic effect of the mixture in the form of a complex salt. Without wishing to be bound to the theory, it is possible that this effect is brought about by a better bioavailability of the complex salt. HCA is prone to spontaneous lactonization in aqueous solution and in the gastrointestinal tract. The complexation with Mg before preparation of a solution might have a stabilizing effect in relation to the unwanted rearrangement of the lactone and thus bring about much greater activity in cooperation with carnitine. […] It is also possible that a previously unrecognized stimulating effect in particular of magnesium, in the sense of that stated above concerning the mechanism of action of carnitine and hydroxycitrate, is involved. Allosterically regulated enzymes are often regulated by various factors such as, for example, also Mg cations. Magnesium is moreover an important cofactor for various enzymes or constituent of the holo enzyme. […]

[5] = Weight gain of previously dried mixture under standard conditions; format: physicochemical; details: after 24 h under standard conditions
Description: The weight gain of the mixture of the invention which had previously been dried was, after 24 h under standard conditions, 0.82% by weight. At a relative humidity of 56%, the water uptake of the mixture determined by gravimetry was ≦10% by weight after 30 h, corresponding to about 30% by weight based on the carnitine content of the mixture.

[6] = storage time 4 h, 56% relative humidity
[7] = storage time 8 h, 56% relative humidity
[8] = storage time 24 h, 56% relative humidity
[9] = storage time 36 h, 56% relative humidity
[10] = storage time 48 h, 56% relative humidity
[11] = storage time 336 h, 56% relative humidity

Row | Molecule | weight gain (moisture uptake from the air) [2, 6] [% by weight] | weight gain (moisture uptake from the air) [2, 7] [% by weight] | weight gain (moisture uptake from the air) [2, 8] [% by weight] | weight gain (moisture uptake from the air) [2, 9] [% by weight] | weight gain (moisture uptake from the air) [2, 10] [% by weight] | weight gain (moisture uptake from the air) [2, 11] [% by weight] | also measured
1 | O=C(O)CC(O)(C(=O)O)C(O)C(=O)O (stereo not shown) [HCA, Hydroxycitric acid] |  |  |  |  |  |  | affinity of the enzyme relative to natural substrate citric acid ([1]; fold higher than for citric acid): more than 100 times
2 | C[N+](C)(C)C[C@H](O)CC(=O)[O-].O=C([O-])CC(O)(CC(=O)[O-])C(=O)[O-].O=C([O-])CC(O)(CC(=O)[O-])C(=O)[O-].[Mg+2].[Mg+2].[Mg+2] [carnitine-Mg citrate, L-carnitine-magnesium citrate] |  |  |  |  |  |  | moisture uptake based on carnitine content (free base) ([2]; 56% relative humidity, based on amount of carnitine in the mixture): not more than 40 % by weight; moisture uptake ([2]; after 48 h at 56% relative humidity): not more than 7 % by weight; moisture uptake ([2]; after storage for 330 h at 56% relative humidity): not more than 7 % by weight
3 | C[N+](C)(C)C[C@H](O)CC(=O)[O-].O=C([O-])CC(O)(CC(=O)[O-])C(=O)[O-].O=C([O-])CC(O)(CC(=O)[O-])C(=O)[O-].[Mg+2].[Mg+2].[Mg+2] [example 1, L-Carnitine-Magnesium Citrate] | 2.0 | 2.2 | 4.6 | 4.4 | 5.2 | 5.1 | 
4 | C[N+](C)(C)C[C@H](O)CC(=O)[O-].O=C([O-])CC(O)(CC(=O)[O-])C(=O)[O-].O=C([O-])CC(O)(CC(=O)[O-])C(=O)[O-].[Mg+2].[Mg+2].[Mg+2] [example 2, L-Carnitine-Magnesium Citrate] | 2.7 | 3.0 | 5.4 | 5.5 | 6.4 | 6.5 | 
5 | O=C1C[C@@](O)(C(=O)O)[C@@H](C(=O)O)O1 [lactone derivative] |  |  |  |  |  |  | affinity of the enzyme compared with HCA ([1]; by comparison with HCA): clear lower affinity
6 | C[N+](C)(C)C[C@H](O)CC(=O)[O-].O=C([O-])CC(O)(CC(=O)[O-])C(=O)[O-].O=C([O-])CC(O)(CC(=O)[O-])C(=O)[O-].[Mg+2].[Mg+2].[Mg+2] [reference, L-carnitine-magnesium citrate, reference compound] | 5.1 | 9.1 | 18.1 | 17.6 | 20.4 | 15.6 | water uptake [3]: 21 % by weight
7 | L-Carnitine-Magnesium (−)-Hydroxycitrate [Example 4] |  |  |  |  |  |  | storage stability in relation to rearrangement of HCA to the lactone [4]: improved storage stability; water uptake based on the carnitine content of the mixture ([2]; after 30 h at relative humidity 56%): about 30 % by weight; water uptake ([2]; after 30 h at relative humidity 56%, gravimetry): ≤ 10 % by weight; weight gain [5]: 0.82 % by weight
